Results taken from US7074742B2, “Pyridinyl amides and imides for use as fungicides” (E. I. du Pont de Nemours and Company, priority 2000, dated 2006).
Marks after values point to notes of the source that are not given here.

What was measured:
Type in all cases: in vivo
Pyricularia oryzae = conditions: preventive spray on rice seedlings; 100 = 100% disease control, 0 = no control; concentration not marked in table
Plasmopara viticola [1] = experiment: TEST E: preventive spray on grape seedlings, grape downy mildew, disease rating
Plasmopara viticola [2] = experiment: TEST G: curative spray on inoculated grape seedlings, grape downy mildew, disease rating; conditions: for curative utility: curative (post-infection) use, especially for grape downy mildew, statement in words; for Test G disease control rating (grape downy mildew, curative): curative spray on inoculated grape seedlings
Phytophthora infestans = conditions: preventive spray on tomato seedlings; 100 = 100% disease control, 0 = no control; concentration not marked in table
Puccinia recondita = experiment: TEST B: preventive spray on wheat seedlings, wheat leaf rust, disease rating; conditions: 100 = 100% disease control, 0 = no control, concentration not marked in table
[3] = test system: Erysiphe graminis f. sp. tritici; experiment: TEST A: preventive spray on wheat seedlings, wheat powdery mildew, disease rating; conditions: 100 = 100% disease control, 0 = no control relative to controls, concentration not marked in table
[4] = 100 = 100% disease control, 0 = no control, concentration not marked in table
[5] = concentration not marked in table

Compound	Test C disease control rating (rice blast) (Pyricularia oryzae) [%]	Test E disease control rating (grape downy mildew) (Plasmopara viticola [1]; [4]) [%]	curative utility (Plasmopara viticola [2])	Test G disease control rating (grape downy mildew, curative) (Plasmopara viticola [2]; 20 ppm)	Test D disease control rating (potato and tomato late blight) (Phytophthora infestans) [%]	Test G disease control rating (grape downy mildew, curative) (Plasmopara viticola [2]; 100 ppm)	Test B disease control rating (wheat leaf rust) (Puccinia recondita) [%]	Test A disease control rating (wheat powdery mildew) [3] [%]	Test G disease control rating (grape downy mildew, curative) (Plasmopara viticola [2]; [5]) [%]	Test E disease control rating (grape downy mildew) (Plasmopara viticola [1]; 100 ppm)
C[C@@H](NC(=O)c1c(Cl)ccnc1Cl)c1ncc(C(F)(F)F)cc1Cl [Compound 31, 2,4-dichloro-N-[(1R)-1-[3-chloro-5-(trifluoromethyl)-2-pyridinyl]ethyl]-3-pyridinecarboxamide]	0	100	significant curative utility	100** %	100	–	–	–	–	–
Cc1cnc(Cl)c(C(=O)NCc2ncc(C(F)(F)F)cc2Cl)c1Cl [Compound 29]	0	100	significant curative utility	–	100	100* %	–	–	–	–
COc1cc(C(=O)NCc2ncc(C(F)(F)F)cc2Cl)cc(Cl)n1 [Cmpd 34]	–	–	–	–	31	–	44	0	–	–
O=C(NCc1ncc(C(F)(F)F)cc1Cl)c1cncc(Br)c1 [Cmpd 10]	74	0	–	–	16	–	9	0	–	–
CCOc1ncccc1C(=O)NCc1ncc(C(F)(F)F)cc1Cl [Cmpd 13]	0	23	–	–	3	–	9	0	–	–
O=C(NCc1ncc(C(F)(F)F)cc1Cl)c1cncc(C#Cc2ccccc2)c1 [Cmpd 17]	0	0	–	–	25	–	0	13	–	–
Cc1cc(Cl)c(C(=O)NCc2ncc(C(F)(F)F)cc2Cl)c(Cl)n1 [Compound 8, 2,4-Dichloro-N-[[3-chloro-5-(trifluoromethyl)-2-pyridinyl]methyl]-6-methyl-3-pyridinecarboxamide]	–	100	significant curative utility	–	100	–	8	0	96	–
O=C(NCc1ncc(C(F)(F)F)cc1Cl)c1ccc(C(F)(F)F)nc1Br [Cmpd 18]	80	0	–	–	32	–	9	0	–	–
O=C(NCc1ncc(C(F)(F)F)cc1Cl)c1ccc(C(F)(F)F)nc1-c1ccccc1 [Cmpd 24]	7	8	–	–	25	–	0	0	–	–
Nc1ncccc1C(=O)NCc1ncc(C(F)(F)F)cc1Cl [Cmpd 9]	0	0	–	–	7	–	28	0	–	–
Cc1nc(C(F)(F)F)ccc1C(=O)NCc1ncc(C(F)(F)F)cc1Cl [Cmpd 20]	87	8	–	–	25	–	28	0	–	–
COc1ncccc1C(=O)NCc1ncc(C(F)(F)F)cc1Cl [Cmpd 12]	0	24	–	–	7	–	19	0	–	–
O=C(NCc1ncc(C(F)(F)F)cc1Cl)c1cccnc1Nc1cccc(C(F)(F)F)c1 [Cmpd 27]	0	16	–	–	32	–	0	0	–	–
O=C(NCc1ncc(C(F)(F)F)cc1Cl)c1cnc(Cl)c(Cl)c1 [Cmpd 7]	–	–	–	–	–	–	0	0	–	–
Cc1nc(C(F)(F)C(F)(F)F)ccc1C(=O)NCc1ncc(C(F)(F)F)cc1Cl [Cmpd 21]	88	8	–	–	16	–	68	69	–	–
COCc1nc(C(F)(F)F)ccc1C(=O)NCc1ncc(C(F)(F)F)cc1Cl [Cmpd 23]	7	8	–	–	32	–	9	72	–	–

Compound	Test C disease control rating (rice blast) (Pyricularia oryzae) [%]	Test E disease control rating (grape downy mildew) (Plasmopara viticola [1]; [4]) [%]	curative utility (Plasmopara viticola [2])	Test G disease control rating (grape downy mildew, curative) (Plasmopara viticola [2]; 20 ppm)	Test D disease control rating (potato and tomato late blight) (Phytophthora infestans) [%]	Test G disease control rating (grape downy mildew, curative) (Plasmopara viticola [2]; 100 ppm)	Test B disease control rating (wheat leaf rust) (Puccinia recondita) [%]	Test A disease control rating (wheat powdery mildew) [3] [%]	Test G disease control rating (grape downy mildew, curative) (Plasmopara viticola [2]; [5]) [%]	Test E disease control rating (grape downy mildew) (Plasmopara viticola [1]; 100 ppm)
Cc1ncccc1C(=O)NCc1ccc(Cl)nc1 [Cmpd 32]	0	–	–	–	32	–	0	0	–	–
O=C(NCc1ncc(C(F)(F)F)cc1Cl)c1cccnc1Sc1ccccc1 [Cmpd 16]	100	8	–	–	34	–	9	0	–	–
Cc1ccc(C(=O)NCc2ncc(C(F)(F)F)cc2Cl)c(O)n1 [Cmpd 19]	0	8	–	–	7	–	9	0	–	–
CC(NC(=O)c1c(Cl)ccnc1Cl)c1ncc(C(F)(F)F)cc1Cl (racemic) [Compound 30]	0	100	significant curative utility	–	100	100* %	–	–	–	–
O=C(NCc1ncc(C(F)(F)F)cc1Cl)c1cccnc1O [Cmpd 11]	0	8	–	–	7	–	9	0	–	–
Cc1ncccc1C(=O)NCc1ccc(Oc2cccc(C(F)(F)F)c2)nc1 [Cmpd 33]	–	–	–	–	71	–	–	91	–	–
O=C(NCc1ncc(C(F)(F)F)cc1Cl)c1cccnc1Oc1ccccc1 [Cmpd 15]	30	8	–	–	7	–	38	0	–	–
COc1nc(C(F)(F)F)ccc1C(=O)NCc1ncc(C(F)(F)F)cc1Cl [Cmpd 22]	0	0	–	–	7	–	0	0	–	–
O=C(NCc1ncc(C(F)(F)F)cc1Cl)c1cccnc1Cl [Compound 5]	–	98	significant curative utility	–	–	–	19	–	99	–
Cc1ccc(C(=O)NCc2ncc(C(F)(F)F)cc2Cl)c(Cl)n1 [Cmpd 14]	90	98	–	–	100	–	19	0	–	–
Cc1cnc(C(=O)NCc2ncc(C(F)(F)F)cc2Cl)c(Cl)c1 [Compound 2]	–	–	significant curative utility	–	100	–	–	0	99	–
O=C(NCc1ncc(C(F)(F)F)cc1Cl)c1c(Cl)cncc1Cl [Compound 35]	–	100	significant curative utility	–	100	100* %	30	0	–	–
CC(NC(=O)c1c(Cl)ccnc1Cl)c1ncc(C(F)(F)F)cc1Cl (single isomer, unassigned) [Cmpd 38]	–	–	–	0** %	–	–	–	–	–	69* %
O=C(NCc1ncc(C(F)(F)F)cc1Cl)c1ccc(C(F)(F)F)nc1 [Cmpd 26]	0	0	–	–	25	–	32	0	–	–
Cc1nc(Cl)ccc1C(=O)NCc1ncc(C(F)(F)F)cc1Cl [Cmpd 25]	13	16	–	–	79	–	9	0	–	–
